Results reported in ChEMBL document CHEMBL1135290, “Synthesis of sub-micromolar inhibitors of MraY by exploring the region originally occupied by the diazepanone ring in the liposidomycin structure” (Bioorg Med Chem Lett, 2002).

Test system: Enterococcus faecium
Assay: Tested in vitro for antibacterial activity against Enterococcus faecium using micro-broth dilution method
Format: functional
In the case of `CCCCCCCCNC[C@H](O[C@@H]1O[C@H](CN)[C@@H](O)[C@H]1O)[C@@H]1C[C@@H](O)[C@H](n2ccc(=O)[nH]c2=O)O1.O=C(O)C(F)(F)F`, the MIC is reported as 80 µg/mL.

Test system: Escherichia coli
Assay: Tested in vitro for antibacterial activity against Escherichia coli using micro-broth dilution method
Format: functional
Compound `CCCCCCCCNC[C@H](O[C@@H]1O[C@H](CN)[C@@H](O)[C@H]1O)[C@@H]1C[C@@H](O)[C@H](n2ccc(=O)[nH]c2=O)O1.O=C(O)C(F)(F)F` has an MIC of over 80 µg/mL.

Test system: Staphylococcus aureus
Assay: Tested in vitro for antibacterial activity against Staphylococcus aureus using micro-broth dilution method
Format: functional
Compound `CCCCCCCCNC[C@H](O[C@@H]1O[C@H](CN)[C@@H](O)[C@H]1O)[C@@H]1C[C@@H](O)[C@H](n2ccc(=O)[nH]c2=O)O1.O=C(O)C(F)(F)F` has an MIC of over 80 µg/mL.

Test system: Streptococcus pyogenes
Assay: Tested in vitro for antibacterial activity against Streptococcus pyogenes using micro-broth dilution method
Format: functional
For `CCCCCCCCNC[C@H](O[C@@H]1O[C@H](CN)[C@@H](O)[C@H]1O)[C@@H]1C[C@@H](O)[C@H](n2ccc(=O)[nH]c2=O)O1.O=C(O)C(F)(F)F`, the MIC was over 80 µg/mL.

Target: not listed separately
Assay: Inhibitory activity against Translocase I
For `NC[C@H]1O[C@@H](OC[C@H]2O[C@@H](n3ccc(=O)[nH]c3=O)[C@H](O)[C@@H]2O)[C@H](O)[C@@H]1O`, the IC50 was 50 µM.
With `COC(=O)C1CCN(C[C@H](O[C@@H]2O[C@H](CN)[C@@H](O)[C@H]2O)[C@@H]2C[C@@H](O)[C@H](n3ccc(=O)[nH]c3=O)O2)CC1` the IC50 was 4.4 µM.
In the case of `NC[C@H]1O[C@@H](O[C@@H](CNC(=O)Cc2ccc(-c3ccccc3)cc2)[C@@H]2C[C@@H](O)[C@H](n3ccc(=O)[nH]c3=O)O2)[C@H](O)[C@@H]1O`, the IC50 is reported as 0.43 µM.
For `CCCCCCCCCCCCN(C)C[C@H](O[C@@H]1O[C@H](CN)[C@@H](O)[C@H]1O)[C@@H]1C[C@@H](O)[C@H](n2ccc(=O)[nH]c2=O)O1`, the IC50 was 0.23 µM.
Work on `NC[C@H]1O[C@@H](O[C@@H](CNCC2COc3ccccc3O2)[C@@H]2C[C@@H](O)[C@H](n3ccc(=O)[nH]c3=O)O2)[C@H](O)[C@@H]1O` (some centres not stated) yielded an IC50 of 2.8 µM.
With `NC[C@H]1O[C@@H](O[C@@H](CNCC2CCCO2)[C@@H]2C[C@@H](O)[C@H](n3ccc(=O)[nH]c3=O)O2)[C@H](O)[C@@H]1O` (some centres not stated) the IC50 was 9.2 µM.
For `NC[C@H]1O[C@@H](O[C@@H](CNC(=O)c2ccc(Oc3ccccc3)cc2)[C@@H]2C[C@@H](O)[C@H](n3ccc(=O)[nH]c3=O)O2)[C@H](O)[C@@H]1O`, the IC50 was 0.2 µM.
Work on `NC[C@H]1O[C@@H](O[C@@H](CN2CCN(CC(=O)N3CCCC3)CC2)[C@@H]2C[C@@H](O)[C@H](n3ccc(=O)[nH]c3=O)O2)[C@H](O)[C@@H]1O` yielded an IC50 of 1.9 µM.
With `CCCCCN(CCCCC)C[C@H](O[C@@H]1O[C@H](CN)[C@@H](O)[C@H]1O)[C@@H]1C[C@@H](O)[C@H](n2ccc(=O)[nH]c2=O)O1` the IC50 was 9.7 µM.
For `NC[C@H]1O[C@@H](O[C@@H](CNC(=O)c2ccc(C3CCCCC3)cc2)[C@@H]2C[C@@H](O)[C@H](n3ccc(=O)[nH]c3=O)O2)[C@H](O)[C@@H]1O`, the IC50 was 0.39 µM.
With `NC[C@H]1O[C@@H](O[C@@H](CNC(=O)c2ccccc2)[C@@H]2C[C@@H](O)[C@H](n3ccc(=O)[nH]c3=O)O2)[C@H](O)[C@@H]1O` the IC50 was 14 µM.
For `NC[C@H]1O[C@@H](O[C@@H](CNC(=O)c2ccc(-c3ccccc3)cc2)[C@@H]2C[C@@H](O)[C@H](n3ccc(=O)[nH]c3=O)O2)[C@H](O)[C@@H]1O`, the IC50 was 0.25 µM.
In the case of `NC[C@H]1O[C@@H](O[C@@H](CNCCCN2CCCC2=O)[C@@H]2C[C@@H](O)[C@H](n3ccc(=O)[nH]c3=O)O2)[C@H](O)[C@@H]1O`, the IC50 is reported as 7 µM.
With `CC(C)(C)c1ccc(CNC[C@H](O[C@@H]2O[C@H](CN)[C@@H](O)[C@H]2O)[C@@H]2C[C@@H](O)[C@H](n3ccc(=O)[nH]c3=O)O2)cc1` the IC50 was 0.58 µM.
`NC[C@H]1O[C@@H](O[C@@H](CNC(=O)Nc2ccc(C3CCCCC3)cc2)[C@@H]2C[C@@H](O)[C@H](n3ccc(=O)[nH]c3=O)O2)[C@H](O)[C@@H]1O` showed an IC50 of 0.16 µM.
Work on `NC[C@H]1O[C@@H](O[C@@H](CNCCc2c[nH]c3ccccc23)[C@@H]2C[C@@H](O)[C@H](n3ccc(=O)[nH]c3=O)O2)[C@H](O)[C@@H]1O` yielded an IC50 of 2.9 µM.
For `NC[C@H]1O[C@@H](O[C@@H](CNCc2ccc(OC(F)(F)F)cc2)[C@@H]2C[C@@H](O)[C@H](n3ccc(=O)[nH]c3=O)O2)[C@H](O)[C@@H]1O`, the IC50 was 0.3 µM.
`NC[C@H]1O[C@@H](O[C@@H](CNCCc2ccc(Cl)cc2)[C@@H]2C[C@@H](O)[C@H](n3ccc(=O)[nH]c3=O)O2)[C@H](O)[C@@H]1O` showed an IC50 of 0.17 µM.
`NC[C@H]1O[C@@H](O[C@@H](CO)[C@H]2O[C@@H](n3ccc(=O)[nH]c3=O)[C@H](O)[C@@H]2O)[C@H](O)[C@@H]1O` showed an IC50 of 5 µM.
Work on `NC[C@H]1O[C@@H](O[C@@H](CNCc2ccc(SC(F)(F)F)cc2)[C@@H]2C[C@@H](O)[C@H](n3ccc(=O)[nH]c3=O)O2)[C@H](O)[C@@H]1O` yielded an IC50 of 0.31 µM.
Compound `COc1ccc(CNC[C@H](O[C@@H]2O[C@H](CN)[C@@H](O)[C@H]2O)[C@@H]2C[C@@H](O)[C@H](n3ccc(=O)[nH]c3=O)O2)cc1OC` has an IC50 of 4 µM.
`NC[C@H]1O[C@@H](O[C@@H](CNCc2ccc(C(=O)O)cc2)[C@@H]2C[C@@H](O)[C@H](n3ccc(=O)[nH]c3=O)O2)[C@H](O)[C@@H]1O` showed an IC50 of 6.5 µM.
Work on `NC[C@H]1O[C@@H](O[C@@H](CNCc2cccs2)[C@@H]2C[C@@H](O)[C@H](n3ccc(=O)[nH]c3=O)O2)[C@H](O)[C@@H]1O` yielded an IC50 of 2.3 µM.
Compound `CSCC[C@H](NC(=O)N[C@@H](Cc1cccc(O)c1)C(=O)O)C(=O)NC(C(=O)N/C=C1\C[C@@H](O)[C@H](n2ccc(=O)[nH]c2=O)O1)[C@H](C)N(C)C(=O)[C@@H](N)Cc1cccc(O)c1` (some centres not stated) has an IC50 of 0.065 µM.
Work on `NC[C@H]1O[C@@H](O[C@@H](CNCCc2ccc(Oc3ccccc3)cc2)[C@@H]2C[C@@H](O)[C@H](n3ccc(=O)[nH]c3=O)O2)[C@H](O)[C@@H]1O` yielded an IC50 of 0.31 µM.
For `NC[C@H]1O[C@@H](O[C@@H](CN2CCCCC2)[C@@H]2C[C@@H](O)[C@H](n3ccc(=O)[nH]c3=O)O2)[C@H](O)[C@@H]1O`, the IC50 was 5.9 µM.
`CCCCCCCCNC[C@H](O[C@@H]1O[C@H](CN)[C@@H](O)[C@H]1O)[C@@H]1C[C@@H](O)[C@H](n2ccc(=O)[nH]c2=O)O1.O=C(O)C(F)(F)F` gave an IC50 of 0.82 µM.
For `CC(C)c1ccc(C(=O)NC[C@H](O[C@@H]2O[C@H](CN)[C@@H](O)[C@H]2O)[C@@H]2C[C@@H](O)[C@H](n3ccc(=O)[nH]c3=O)O2)cc1`, the IC50 was 0.4 µM.
`NC[C@H]1O[C@@H](O[C@@H](CNC(=O)c2cccc(Oc3ccccc3)c2)[C@@H]2C[C@@H](O)[C@H](n3ccc(=O)[nH]c3=O)O2)[C@H](O)[C@@H]1O` showed an IC50 of 0.44 µM.
`NC[C@H]1O[C@@H](O[C@@H](CNCc2cccnc2)[C@@H]2C[C@@H](O)[C@H](n3ccc(=O)[nH]c3=O)O2)[C@H](O)[C@@H]1O` gave an IC50 of 4.8 µM.
Compound `Cc1ccc(CCNC[C@H](O[C@@H]2O[C@H](CN)[C@@H](O)[C@H]2O)[C@@H]2C[C@@H](O)[C@H](n3ccc(=O)[nH]c3=O)O2)cc1` has an IC50 of 0.61 µM.
Work on `CN(Cc1ccc(-c2ccccc2)cc1)C[C@H](O[C@@H]1O[C@H](CN)[C@@H](O)[C@H]1O)[C@@H]1C[C@@H](O)[C@H](n2ccc(=O)[nH]c2=O)O1` yielded an IC50 of 0.17 µM.
In the case of `CC(=O)N[C@H]1[C@@H](O[C@@H]2O[C@H](CC(O)[C@H]3O[C@@H](n4ccc(=O)[nH]c4=O)[C@H](O)[C@@H]3O)[C@H](O)[C@H](O)[C@H]2NC(=O)/C=C/CC(C)C)O[C@H](CO)[C@@H](N)[C@@H]1O` (some centres not stated) [TUNICAMYCIN], the IC50 is reported as 0.48 µM.
Compound `CCCCCCCNC[C@H](O[C@@H]1O[C@H](CN)[C@@H](O)[C@H]1O)[C@@H]1C[C@@H](O)[C@H](n2ccc(=O)[nH]c2=O)O1` has an IC50 of 0.74 µM.
`COc1ccc(CN(C)C[C@H](O[C@@H]2O[C@H](CN)[C@@H](O)[C@H]2O)[C@@H]2C[C@@H](O)[C@H](n3ccc(=O)[nH]c3=O)O2)cc1` gave an IC50 of 1.4 µM.
`NC[C@H]1O[C@@H](O[C@@H](CN2CCC(Cc3ccccc3)CC2)[C@@H]2C[C@@H](O)[C@H](n3ccc(=O)[nH]c3=O)O2)[C@H](O)[C@@H]1O` showed an IC50 of 0.35 µM.
With `CN(Cc1ccccc1)C[C@H](O[C@@H]1O[C@H](CN)[C@@H](O)[C@H]1O)[C@@H]1C[C@@H](O)[C@H](n2ccc(=O)[nH]c2=O)O1` the IC50 was 6.9 µM.
For `NC[C@H]1O[C@@H](O[C@@H](CNc2ccc(C3CCCCC3)cc2)[C@@H]2C[C@@H](O)[C@H](n3ccc(=O)[nH]c3=O)O2)[C@H](O)[C@@H]1O`, the IC50 was 0.18 µM.
`NC[C@H]1O[C@@H](O[C@@H](CNCCc2ccncc2)[C@@H]2C[C@@H](O)[C@H](n3ccc(=O)[nH]c3=O)O2)[C@H](O)[C@@H]1O` showed an IC50 of 4.6 µM.
For `NC[C@H]1O[C@@H](O[C@@H](CNCCc2cccc(C(F)(F)F)c2)[C@@H]2C[C@@H](O)[C@H](n3ccc(=O)[nH]c3=O)O2)[C@H](O)[C@@H]1O`, the IC50 was 0.22 µM.
`COC(=O)c1ccc(CNC[C@H](O[C@@H]2O[C@H](CN)[C@@H](O)[C@H]2O)[C@@H]2C[C@@H](O)[C@H](n3ccc(=O)[nH]c3=O)O2)cc1` showed an IC50 of 1.2 µM.
In the case of `NC[C@H]1O[C@@H](O[C@@H](CNCCCn2ccnc2)[C@@H]2C[C@@H](O)[C@H](n3ccc(=O)[nH]c3=O)O2)[C@H](O)[C@@H]1O`, the IC50 is reported as 3.8 µM.
For `NC[C@H]1O[C@@H](O[C@@H](CNCCCN2CCOCC2)[C@@H]2C[C@@H](O)[C@H](n3ccc(=O)[nH]c3=O)O2)[C@H](O)[C@@H]1O`, the IC50 was 3.8 µM.
`CN1CCCC1CCNC[C@H](O[C@@H]1O[C@H](CN)[C@@H](O)[C@H]1O)[C@@H]1C[C@@H](O)[C@H](n2ccc(=O)[nH]c2=O)O1` (some centres not stated) showed an IC50 of 3.9 µM.
For `NC[C@H]1O[C@@H](O[C@@H](CNc2ccc(Oc3ccccc3)cc2)[C@@H]2C[C@@H](O)[C@H](n3ccc(=O)[nH]c3=O)O2)[C@H](O)[C@@H]1O`, the IC50 was 0.2 µM.
`NC[C@H]1O[C@@H](O[C@@H](CNC(=O)c2cccc(OC(F)(F)F)c2)[C@@H]2C[C@@H](O)[C@H](n3ccc(=O)[nH]c3=O)O2)[C@H](O)[C@@H]1O` showed an IC50 of 1 µM.
`CN1CCCC1CNC[C@H](O[C@@H]1O[C@H](CN)[C@@H](O)[C@H]1O)[C@@H]1C[C@@H](O)[C@H](n2ccc(=O)[nH]c2=O)O1` (some centres not stated) gave an IC50 of 1.3 µM.
`NC[C@H]1O[C@@H](O[C@@H](CNC(=O)c2ccc(Br)cc2)[C@@H]2C[C@@H](O)[C@H](n3ccc(=O)[nH]c3=O)O2)[C@H](O)[C@@H]1O` showed an IC50 of 0.44 µM.
For `CCN(CC)CCN1CCN(C[C@H](O[C@@H]2O[C@H](CN)[C@@H](O)[C@H]2O)[C@@H]2C[C@@H](O)[C@H](n3ccc(=O)[nH]c3=O)O2)CC1`, the IC50 was 1.8 µM.
`NC[C@H]1O[C@@H](O[C@@H](CNC(=O)c2ccc(OCc3ccccc3)cc2)[C@@H]2C[C@@H](O)[C@H](n3ccc(=O)[nH]c3=O)O2)[C@H](O)[C@@H]1O` gave an IC50 of 0.32 µM.
With `NC[C@H]1O[C@@H](O[C@@H](CNCCc2ccccc2)[C@@H]2C[C@@H](O)[C@H](n3ccc(=O)[nH]c3=O)O2)[C@H](O)[C@@H]1O` the IC50 was 1.6 µM.
Compound `NC[C@H]1O[C@@H](O[C@@H](CNC(=O)Nc2ccc(Oc3ccccc3)cc2)[C@@H]2C[C@@H](O)[C@H](n3ccc(=O)[nH]c3=O)O2)[C@H](O)[C@@H]1O` has an IC50 of 0.14 µM.
`NC[C@H]1O[C@@H](O[C@@H](CNCc2ccncc2)[C@@H]2C[C@@H](O)[C@H](n3ccc(=O)[nH]c3=O)O2)[C@H](O)[C@@H]1O` gave an IC50 of 3.4 µM.
